Reference: patent publication US11066369B2, “N-(pyridin-2-yl)pyridine-sulfonamide derivatives and their use in the treatment of disease” (Novartis AG, priority 2016, dated 2021)
Where a name gives a salt, the structure may show the parent alone. Read-outs that look alike come from different tables or passages of the source.

Molecular target: T1, horseradish peroxidase (HRP) tagged delF508-CFTR (Homo sapiens, UniProt P13569, DEL508-508)
T1 construct: expressed in transfected cells
Assay: Measurement of delF508-CFTR-HRP surface expression in CFBE41o- cells;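 for DelF508-CFTR-HRP Amax %: percent efficacy relative to reference corrector lumacaftor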
Type: cell-based
Settings: CFBE41o- cells; for Emax: read-out: DelF508-CFTR-HRP Amax %; for EC50: read-out: DelF508-CFTR-HRP EC50
Text: Measurement of delF508-CFTR-HRP Surface Expression in CFBE41o-Cells
This assay quantifies the cell surface expressions of the mutant CFTR channel using an extracellular HRP tag.
A cellular assay was developed to measure surface expression of horseradish peroxidase (HRP) tagged delF508-CFTR in the human bronchial epithelial immortalized CFBE41o-cell line (Phuan, P. W., et al, (2014) Molecular Pharmacology 86:42-51). Specifically, the HRP sequence was inserted into the fourth extracellular loop of delF508-CFTR and stably expressed in CFBE41o-cells. Cells were seeded in 384 well plate at a density of 5000 cells/well and incubated at 37° C. for 12 to 24 hours in medium (Gibco MEM #11095, 10% FBS, 10 mM HEPES, […], 200 μg/mL G418, 3 μg/mL Puromycin). The delF508-CFTR-HRP expression was induced with 500 ng/mL doxycycline (Sigma D-9891, dissolved in H2O and sterile filtered) in medium and the cells were incubated at 37° C. for 48h. Old medium was removed and fresh medium was added containing 500 ng/mL doxycycline and unknown test compound at required test concentration in DMSO, not exceeding 0.5% final DMSO concentration. The highest concentration tested was 10 μM with a 10-point concentration response curve using a 3-fold dilution. After addition of compounds, the cells were incubated for 24h at 37° C. On the final day, cells were washed four times in PBS containing 1 mM MgCl2 and 0.1 mM CaCl2. HRP-Substrate (SuperSignal ELISA Pico, Fisher #37069) 20 μl/well was added and the luminescence signal was determined (Viewlux, Perkin Elmer). Light was emitted upon addition of exogenous HRP-Substrate only when delF508-CFTR-HRP reached the cell surface and the HRP tag was accessible to the HRP-Substrate (note: HRP-Substrate cannot cross the lipid bilayer to reach delF508-CFTR-HRP misfolded within the cell).
The median activity for the lowest concentration of the compounds on each assay plate was calculated and this value was used to normalize the signal for each well on the respective plate. Three replicates at each concentrations for every compound were run to determine one EC50. The median value was determined and used to calculate compound activities as described below. Effective half maximal values (EC50) were calculated for each compound by performing logistic regression on measured dose-response data points using the equation:
[formula] where “Y” is the observed activity, “Bottom” is the lowest observed value, “Top” is the highest observed value, and the “Hill coefficient” gives the largest absolute value of the slope. The curve fitting is carried out by a curve fitting program implemented at GNF using Matlab (Mathworks).
The dose response curves also were used to calculate Fold Change (FC) using the equation: […]
Compound efficacy relative to the reference compound 3-(6-(1-(2,2-difluorobenzo[d][1,3]dioxol-5-yl)cyclopropane-1-carboxamido)-3-methylpyridin-2-yl)benzoic acid was determined using the following formula: […]

[1] = delF508-CFTR-HRP surface expression
[2] = mean of at least two replicates

T1 sequence (P13569 with tags, fused parts or gaps DEL508-508): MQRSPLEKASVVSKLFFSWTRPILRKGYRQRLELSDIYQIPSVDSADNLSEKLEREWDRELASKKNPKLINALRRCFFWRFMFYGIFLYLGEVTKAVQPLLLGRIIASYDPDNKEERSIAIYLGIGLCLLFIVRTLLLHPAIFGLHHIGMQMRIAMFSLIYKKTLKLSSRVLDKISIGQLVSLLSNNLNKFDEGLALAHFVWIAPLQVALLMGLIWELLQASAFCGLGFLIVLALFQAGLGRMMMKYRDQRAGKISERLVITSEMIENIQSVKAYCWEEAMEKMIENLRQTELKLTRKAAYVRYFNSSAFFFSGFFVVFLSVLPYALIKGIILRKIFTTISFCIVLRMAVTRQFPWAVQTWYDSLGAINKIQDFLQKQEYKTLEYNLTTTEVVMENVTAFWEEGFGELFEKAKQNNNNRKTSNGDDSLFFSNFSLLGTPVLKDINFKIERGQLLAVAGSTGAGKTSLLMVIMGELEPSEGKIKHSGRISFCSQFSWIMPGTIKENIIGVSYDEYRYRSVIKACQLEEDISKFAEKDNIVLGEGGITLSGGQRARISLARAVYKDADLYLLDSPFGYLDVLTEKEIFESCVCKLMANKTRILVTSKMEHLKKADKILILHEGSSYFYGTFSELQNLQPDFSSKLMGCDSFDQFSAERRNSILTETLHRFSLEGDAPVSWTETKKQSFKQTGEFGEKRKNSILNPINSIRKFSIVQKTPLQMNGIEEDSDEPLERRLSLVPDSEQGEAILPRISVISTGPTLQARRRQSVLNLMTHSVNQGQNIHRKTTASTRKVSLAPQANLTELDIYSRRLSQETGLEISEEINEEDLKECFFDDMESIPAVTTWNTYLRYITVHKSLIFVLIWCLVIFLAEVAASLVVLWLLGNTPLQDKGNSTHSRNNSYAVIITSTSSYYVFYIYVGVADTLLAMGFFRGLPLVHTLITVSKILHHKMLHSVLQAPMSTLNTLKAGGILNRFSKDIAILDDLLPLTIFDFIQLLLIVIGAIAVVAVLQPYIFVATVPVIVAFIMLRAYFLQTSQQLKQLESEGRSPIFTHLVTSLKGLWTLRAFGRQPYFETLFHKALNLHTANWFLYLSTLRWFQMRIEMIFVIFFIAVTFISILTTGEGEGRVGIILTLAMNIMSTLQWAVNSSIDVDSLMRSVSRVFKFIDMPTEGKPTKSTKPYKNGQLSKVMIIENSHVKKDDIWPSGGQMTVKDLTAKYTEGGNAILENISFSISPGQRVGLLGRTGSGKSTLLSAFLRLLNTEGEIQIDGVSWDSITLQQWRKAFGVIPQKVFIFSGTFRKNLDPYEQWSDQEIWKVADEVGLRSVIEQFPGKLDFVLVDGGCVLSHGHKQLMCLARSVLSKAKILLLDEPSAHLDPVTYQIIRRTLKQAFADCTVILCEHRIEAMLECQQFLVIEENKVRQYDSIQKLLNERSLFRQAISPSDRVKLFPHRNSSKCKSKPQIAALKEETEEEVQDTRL

Emax [1] [%]	EC50 [1] [µM]	EC50 [2] [µM]	Emax (surface expression Amax) [%]	Structure (SMILES)
159	3.8	–	–	O=S(=O)(Nc1ccc(C(F)(F)F)c(-c2ccc(F)cc2Cl)n1)c1cccc(N2CCNCC2)n1 [Example 153, N-(6-(2-Chloro-4-Fluorophenyl)-5-(Trifluoromethyl)Pyridin-2-yl)-6-(Piperazin-1-yl)Pyridine-2-Sulfonamide Hydrochloride]
–	–	2.04	–	C[C@@]1(C(=O)O)CCCN(c2cccc(S(=O)(=O)Nc3ccc(C(F)(F)F)c(-c4ccccc4Cl)n3)n2)C1 [Example 421, (R)-1-(6-(N-(6-(2-chlorophenyl)-5-(trifluoromethyl)pyridin-2-yl)sulfamoyl)pyridin-2-yl)-3-methylpiperidine-3-carboxylic Acid]
–	–	0.838	541	C[C@]1(C(=O)O)CCCN(c2cccc(S(=O)(=O)Nc3ccc(C(F)(F)F)c(-c4ccccc4C4CC4)n3)n2)C1 [Example 429, (S)-1-(6-(N-(6-(2-cyclopropylphenyl)-5-(trifluoromethyl)pyridin-2-yl)sulfamoyl)pyridin-2-yl)-3-methylpiperidine-3-carboxylic Acid]
–	–	2.22	264	Cc1ccc(F)cc1-c1nc(NS(=O)(=O)c2cccc(N3CCCC4(CC4C(=O)O)C3)n2)ccc1C(F)(F)F (stereo not shown) [Example 439, 5-(6-(N-(6-(5-fluoro-2-methylphenyl)-5-(trifluoromethyl)pyridin-2-yl)sulfamoyl)pyridin-2-yl)-5-azaspiro[2.5]octane-1-carboxylic Acid]
–	–	1.89	684	COc1ccc(Cl)c(-c2nc(NS(=O)(=O)c3cccc(N4CCCC(C)(C(=O)O)C4)n3)ccc2C(F)(F)F)c1 (stereo not shown) [Example 414, 1-(6-(N-(6-(2-chloro-5-methoxyphenyl)-5-(trifluoromethyl)pyridin-2-yl)sulfamoyl)pyridin-2-yl)-3-methylpiperidine-3-carboxylic Acid]
–	–	2.11	278	Cc1ccccc1-c1nc(NS(=O)(=O)c2cccc(N3CCC4(CC3)CC(C(=O)O)C4)n2)ccc1C(F)(F)F [Example 446, 7-(6-(N-(6-(o-tolyl)-5-(trifluoromethyl)pyridin-2-yl)sulfamoyl)pyridin-2-yl)-7-azaspiro[3.5]nonane-2-carboxylic Acid]
–	–	2.54	274	Cc1c(F)cccc1-c1nc(NS(=O)(=O)c2cccc(N3CCCC4(CC4C(=O)O)C3)n2)ccc1C(F)(F)F (stereo not shown) [Example 440, 5-(6-(N-(6-(3-fluoro-2-methylphenyl)-5-(trifluoromethyl)pyridin-2-yl)sulfamoyl)pyridin-2-yl)-5-azaspiro[2.5]octane-1-carboxylic Acid]

More lines, now with the values behind:

Structure (SMILES)	Emax [1] [%]	EC50 [1] [µM]	EC50 [2] [µM]	Emax (surface expression Amax) [%]
Cc1ccc(C(F)(F)F)cc1-c1nc(NS(=O)(=O)c2cccc(N)n2)ccc1Cl [Example 51, 6-amino-N-(5-chloro-6-(2-methyl-5-(trifluoromethyl)phenyl)pyridin-2-yl)pyridine-2-sulfonamide]	332	1.98	–	–
CC1(C(=O)O)CCN(c2cccc(S(=O)(=O)Nc3ccc(Cl)c(-c4ccccc4C4CC4)n3)n2)CC1 [Example 430, 1-(6-(N-(5-chloro-6-(2-cyclopropylphenyl)pyridin-2-yl)sulfamoyl)pyridin-2-yl)-4-methylpiperidine-4-carboxylic Acid]	–	–	1.71	370
Nc1cccc(S(=O)(=O)Nc2ccc(Cl)c(-c3c(F)ccc(F)c3F)n2)n1 [Example 78, 6-amino-N-(5-chloro-6-(2,3,6-trifluorophenyl)pyridin-2-yl)pyridine-2-sulfonamide]	141	2.73	–	–
CCC[C@@H]1CCN(c2cccc(S(=O)(=O)Nc3ccc(C(F)(F)F)c(-c4ccccc4C)n3)n2)[C@H]2C[C@H](C(=O)O)[C@@H]12 (racemic) [Example 404, rac-(1SR,5RS,6RS,7SR)-5-propyl-2-(6-(N-(6-(o-tolyl)-5-(trifluoromethyl)pyridin-2-yl)sulfamoyl)pyridin-2-yl)-2-azabicyclo[4.2.0]octane-7-carboxylic Acid]	–	–	0.786	–
CC(C)COc1ccccc1-c1nc(NS(=O)(=O)c2cccc(N3CCC[C@@](C)(C(=O)O)C3)n2)ccc1Cl [Example 422, (R)-1-(6-(N-(5-chloro-6-(2-isobutoxyphenyl)pyridin-2-yl)sulfamoyl)pyridin-2-yl)-3-methylpiperidine-3-carboxylic Acid]	–	–	1.38	905
Nc1cccc(S(=O)(=O)Nc2ccc(Cl)c(-c3c(Cl)cccc3C(F)(F)F)n2)n1 [Example 52, 6-amino-N-(5-chloro-6-(2-chloro-6-(trifluoromethyl)phenyl)pyridin-2-yl)pyridine-2-sulfonamide]	327	1.38	–	–
Nc1cccc(S(=O)(=O)Nc2ccc(Cl)c(-c3c(F)cccc3Cl)n2)n1 [Example 39, 6-amino-N-(5-chloro-6-(2-chloro-6-fluorophenyl)pyridin-2-yl)pyridine-2-sulfonamide]	374	1.9	–	–
Cc1ccccc1-c1nc(NS(=O)(=O)c2cccc(N3C[C@H]4C[C@H]4[C@H]3C(=O)O)n2)ccc1C(F)(F)F [Example 340, (1R,2S,5S)-3-(6-{[6-(2-methylphenyl)-5-(trifluoromethyl)pyridin-2-yl]sulfamoyl}pyridin-2-yl)-3-azabicyclo[3.1.0]hexane-2-carboxylic Acid]	278	2.45	–	–
Cc1cccc(C)c1-c1ccc(F)c(NS(=O)(=O)c2cccc(N)n2)n1 [Example 93, 6-amino-N-(6-(2,6-dimethylphenyl)-3-fluoropyridin-2-yl)pyridine-2-sulfonamide]	23.5	3.55	–	–
Cc1ccccc1-c1nc(NS(=O)(=O)c2cccc(NC3CCC(C(=O)O)CC3)n2)ccc1C(F)(F)F (stereo not shown) [Example 372, 4-((6-(N-(6-(o-tolyl)-5-(trifluoromethyl)pyridin-2-yl)sulfamoyl)pyridin-2-yl)amino)cyclohexanecarboxylic Acid]	554	2.25	–	–
Cc1ccccc1-c1nc(NS(=O)(=O)c2cccc(N3CCN(C(=O)OC(C)(C)C)[C@@H](C(=O)O)C3)n2)ccc1C(F)(F)F [Example 338, (2R)-1-[(tert-butoxy)carbonyl]-4-(6-{[6-(2-methylphenyl)-5-(trifluoromethyl)pyridin-2-yl]sulfamoyl}pyridin-2-yl)piperazine-2-carboxylic Acid]	542	2.81	–	–
Cc1ccccc1-c1cccc(NS(=O)(=O)c2cccc(N3CCC[C@@](C)(C(=O)O)C3)n2)n1 [Example 412, (R)-3-methyl-1-(6-(N-(6-(o-tolyl)pyridin-2-yl)sulfamoyl)pyridin-2-yl)piperidine-3-carboxylic Acid]	–	–	1.89	221
Cc1ccccc1-c1nc(NS(=O)(=O)c2cccc(N[C@@H]3CCC[C@H](C(=O)O)C3)n2)ccc1C(F)(F)F (relative stereo) [Example 461, (1,3-cis)-3-((6-(N-(6-(o-tolyl)-5-(trifluoromethyl)pyridin-2-yl)sulfamoyl)pyridin-2-yl)amino)cyclohexanecarboxylic Acid]	–	–	1.95	392
CCOC(=O)C1(C)CCN(c2cccc(S(=O)(=O)Nc3ccc(C(F)(F)F)c(-c4cccc(F)c4C)n3)n2)CC1 [Example 258, ethyl 1-(6-{[6-(3-fluoro-2-methylphenyl)-5-(trifluoromethyl)pyridin-2-yl]sulfamoyl}pyridin-2-yl)-4-methylpiperidine-4-carboxylate]	828	1.39	–	–
